For data set [1], the target named is T1, Receptor-type tyrosine-protein kinase FLT3 (Homo sapiens, UniProt P36888).
T1 sequence (P36888 whole entry): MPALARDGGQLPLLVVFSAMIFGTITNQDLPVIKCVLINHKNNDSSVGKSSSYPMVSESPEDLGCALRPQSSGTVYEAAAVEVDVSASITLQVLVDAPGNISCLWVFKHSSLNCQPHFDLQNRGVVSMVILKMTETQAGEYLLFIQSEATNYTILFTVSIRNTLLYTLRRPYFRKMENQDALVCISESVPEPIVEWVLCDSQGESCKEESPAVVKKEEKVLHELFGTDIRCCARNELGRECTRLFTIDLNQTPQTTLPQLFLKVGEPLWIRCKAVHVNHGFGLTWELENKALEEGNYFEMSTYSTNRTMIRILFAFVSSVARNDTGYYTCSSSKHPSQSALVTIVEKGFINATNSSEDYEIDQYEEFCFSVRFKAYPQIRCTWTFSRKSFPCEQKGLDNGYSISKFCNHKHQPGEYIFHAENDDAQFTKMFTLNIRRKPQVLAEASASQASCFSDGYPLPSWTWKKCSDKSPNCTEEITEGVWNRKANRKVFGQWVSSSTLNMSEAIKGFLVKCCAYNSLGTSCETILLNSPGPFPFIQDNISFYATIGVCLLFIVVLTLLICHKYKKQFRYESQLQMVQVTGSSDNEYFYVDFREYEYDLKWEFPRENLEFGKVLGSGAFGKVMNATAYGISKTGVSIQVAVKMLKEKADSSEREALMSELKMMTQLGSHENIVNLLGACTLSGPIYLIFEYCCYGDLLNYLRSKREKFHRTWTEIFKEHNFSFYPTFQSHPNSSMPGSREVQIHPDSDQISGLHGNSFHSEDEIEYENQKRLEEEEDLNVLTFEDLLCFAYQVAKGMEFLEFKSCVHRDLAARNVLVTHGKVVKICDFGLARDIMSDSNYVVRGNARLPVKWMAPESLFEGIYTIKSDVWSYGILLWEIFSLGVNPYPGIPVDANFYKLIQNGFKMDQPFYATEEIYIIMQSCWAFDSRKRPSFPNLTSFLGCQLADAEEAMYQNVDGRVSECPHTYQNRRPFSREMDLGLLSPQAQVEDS
Briefly: Inhibition of FLT3 by fluorescence polarization competition immunoassay. (Polarisation of emitted light reports the rotation of a fluorescent probe.)

Data set [2] deals with T2, Tyrosine-protein kinase receptor UFO (Homo sapiens, UniProt P30530).
T2 sequence (P30530 whole entry): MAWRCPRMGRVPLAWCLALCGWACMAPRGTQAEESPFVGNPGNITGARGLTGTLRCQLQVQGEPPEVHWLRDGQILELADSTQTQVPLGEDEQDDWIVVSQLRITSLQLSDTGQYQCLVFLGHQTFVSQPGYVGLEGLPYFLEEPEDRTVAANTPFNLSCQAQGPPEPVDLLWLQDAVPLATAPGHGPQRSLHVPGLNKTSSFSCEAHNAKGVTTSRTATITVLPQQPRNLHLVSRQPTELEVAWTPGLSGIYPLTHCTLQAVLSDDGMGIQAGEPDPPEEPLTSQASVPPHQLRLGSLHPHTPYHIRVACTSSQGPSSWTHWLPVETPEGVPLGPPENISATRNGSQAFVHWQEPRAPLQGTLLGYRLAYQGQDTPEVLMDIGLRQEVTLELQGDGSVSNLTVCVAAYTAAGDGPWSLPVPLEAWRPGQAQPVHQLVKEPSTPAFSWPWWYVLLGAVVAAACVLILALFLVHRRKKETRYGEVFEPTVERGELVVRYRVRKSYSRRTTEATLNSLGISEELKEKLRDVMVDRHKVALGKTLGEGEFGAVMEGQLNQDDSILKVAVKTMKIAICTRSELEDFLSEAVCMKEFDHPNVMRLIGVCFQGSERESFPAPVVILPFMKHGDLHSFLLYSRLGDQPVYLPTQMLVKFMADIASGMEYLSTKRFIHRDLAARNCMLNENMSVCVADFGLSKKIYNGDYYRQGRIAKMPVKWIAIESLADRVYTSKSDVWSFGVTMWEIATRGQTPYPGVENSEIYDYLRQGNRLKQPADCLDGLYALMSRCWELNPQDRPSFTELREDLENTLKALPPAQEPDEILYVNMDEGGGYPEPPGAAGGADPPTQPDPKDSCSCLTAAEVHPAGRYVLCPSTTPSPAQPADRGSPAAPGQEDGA
The experiment in a line: Inhibition of Axl by fluorescence polarization competition immunoassay.

Data set [3] addresses High affinity nerve growth factor receptor (Homo sapiens, UniProt P04629). Briefly: Inhibition of TrkA by fluorescence polarization competition immunoassay.
In a further data set the target is Insulin receptor (Homo sapiens, UniProt P06213). The experiment in a line: Inhibition of IRKbeta by fluorescence polarization competition immunoassay.
The target in data set [4] is Proto-oncogene tyrosine-protein kinase Src (Homo sapiens, UniProt P12931). Briefly: Inhibition of Src by fluorescence polarization competition immunoassay.
Data set [5] is described as follows: Metabolic stability in dog liver microsomes after 10 mins. It is filed as ADME, Canis lupus familiaris, Microsome. The conditions noted are these: read-out: Stability. (Liver microsomes are a subcellular fraction often used to study metabolism.)
The nature of data set [6]: Volume of distribution at steady state in mouse at 2 mg/kg, iv. It counts as ADME, organism-based. Set-up: dose 2 mg/kg, route intravenous. To be noted: in vivo, read-out: Vdss.
Data set [7] is described as follows: Half life in mouse at 2 mg/kg, iv. Also noted: dose 2 mg/kg, route intravenous. The conditions noted are these: in vivo. It is filed as ADME, organism-based.
Data set [8] can be described thus: Cmax in mouse at 10 mg/kg, po. It counts as ADME, organism-based. Also noted: dose 10 mg/kg, route oral. The conditions noted are these: in vivo.
Data set [9] in a line: Oral bioavailability in mouse at 10 mg/kg. It counts as ADME, organism-based. To be noted: in vivo.
The nature of data set [10]: Oral bioavailability in dog at 10 mg/kg. To be noted: in vivo. It is filed as ADME, organism-based, Canis lupus familiaris.
Data set [11] can be described thus: Volume of distribution at steady state in monkey at 2 mg/kg, iv. It counts as ADME, organism-based, Macaca mulatta. Also noted: dose 2 mg/kg, route intravenous. The conditions noted are these: rhesus monkey, in vivo, read-out: Vdss.
Data set [12] can be described thus: Oral bioavailability in monkey at 10 mg/kg. It is filed as ADME, organism-based, Macaca mulatta. The conditions noted are these: rhesus monkey, in vivo.
Data set [13] deals with Rattus norvegicus. The experiment in a line: Reversal of ankle swelling in streptococcal cell wall-induced Lewis rat chronic arthritis model at 3 mg/kg, po twice daily administered on day 19 post streptococcal cell wall challenge. It is filed as functional, organism-based. Set-up: dose 3 mg/kg.
Data set [14] concerns Rattus norvegicus. Briefly: Inhibition of ankle swelling in Freund's complete adjuvant-induced Lewis rat arthritis model at 10 mg/kg, po twice daily administered on day 8 post adjuvant challenge measured on day 21 post adjuvant challenge relative to control. It is filed as functional.
Data set [15] concerns Rattus norvegicus. Briefly: Antiinflammatory effect in Freund's complete adjuvant-induced Lewis rat arthritis model assessed as prevention of osteoclastogenesis at 3 mg/kg, po twice daily administered on day 8 post adjuvant challenge measured on day 21 post adjuvant challenge relative to control. It counts as functional, organism-based. Also noted: dose 3 mg/kg.
Data set [16] relates to Rattus norvegicus. Briefly: Antiinflammatory effect in Freund's complete adjuvant-induced Lewis rat arthritis model assessed as prevention of bone lesion development at tibial tarsal joint at 1 mg/kg, po twice daily administered on day 8 post adjuvant challenge measured on day 21 post adjuvant challenge by microradiography. It is filed as functional, organism-based. Set-up: dose 1 mg/kg.

Data set [17] can be described thus: Plasma concentration in Freund's complete adjuvant-induced Lewis rat arthritis model at 1 mg/kg, po twice daily administered on day 8 post adjuvant challenge measured 7 days after last dose. It counts as ADME, organism-based. Also noted: dose 1 mg/kg, route oral.
Data set [18] in a line: Clearance in Sprague-Dawley rat at 2 mg/kg, iv. It counts as ADME, organism-based. Also noted: dose 2 mg/kg, route intravenous. The conditions noted are these: in vivo.
Data set [19] can be described thus: Oral bioavailability in Sprague-Dawley rat at 10 mg/kg. It is filed as ADME, organism-based. To be noted: in vivo.
Data set [20] is described as follows: Metabolic stability in human liver microsomes after 10 mins. It counts as ADME, Microsome. To be noted: read-out: Stability.
Data set [21] relates to Rattus norvegicus. Briefly: Toxicity in rat assessed as tolerability at 10 mg/kg. It is filed as organism-based. The conditions noted are these: in vivo. Also noted: dose 10 mg/kg.

Active and inactive are the calls of the source. No cut-off for these calls is given here.

For orientation: IC50 means the point on the concentration scale where inhibition reaches its midpoint. One may read the half-life as how long it takes for the measured level to halve. Broadly, the Cmax is the highest concentration seen after dosing. One may read the bioavailability as the share of a dose that reaches the circulation, judged against a reference dose that is usually intravenous. The term inhibition in vivo denotes the drop in the measured response relative to a control, in per cent. As usually defined, the clearance is a measure of how efficiently the substance is removed, as volume per time.

Sequence of Proto-oncogene tyrosine-protein kinase Src (P12931 2-536 limits assumed): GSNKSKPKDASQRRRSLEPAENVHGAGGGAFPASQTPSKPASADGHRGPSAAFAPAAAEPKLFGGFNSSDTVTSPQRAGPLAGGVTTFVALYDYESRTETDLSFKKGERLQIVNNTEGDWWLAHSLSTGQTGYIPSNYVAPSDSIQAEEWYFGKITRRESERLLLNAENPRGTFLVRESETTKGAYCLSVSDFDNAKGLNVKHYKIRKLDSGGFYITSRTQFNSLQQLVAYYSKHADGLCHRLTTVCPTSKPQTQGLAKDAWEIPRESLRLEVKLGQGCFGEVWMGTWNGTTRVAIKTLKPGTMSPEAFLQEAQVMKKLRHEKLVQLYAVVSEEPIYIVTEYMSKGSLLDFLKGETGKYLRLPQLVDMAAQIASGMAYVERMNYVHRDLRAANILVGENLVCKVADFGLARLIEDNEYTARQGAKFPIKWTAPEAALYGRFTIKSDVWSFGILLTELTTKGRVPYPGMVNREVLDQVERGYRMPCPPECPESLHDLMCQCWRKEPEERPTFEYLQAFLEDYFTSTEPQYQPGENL
Sequence of Insulin receptor (P06213 28-758 limits assumed): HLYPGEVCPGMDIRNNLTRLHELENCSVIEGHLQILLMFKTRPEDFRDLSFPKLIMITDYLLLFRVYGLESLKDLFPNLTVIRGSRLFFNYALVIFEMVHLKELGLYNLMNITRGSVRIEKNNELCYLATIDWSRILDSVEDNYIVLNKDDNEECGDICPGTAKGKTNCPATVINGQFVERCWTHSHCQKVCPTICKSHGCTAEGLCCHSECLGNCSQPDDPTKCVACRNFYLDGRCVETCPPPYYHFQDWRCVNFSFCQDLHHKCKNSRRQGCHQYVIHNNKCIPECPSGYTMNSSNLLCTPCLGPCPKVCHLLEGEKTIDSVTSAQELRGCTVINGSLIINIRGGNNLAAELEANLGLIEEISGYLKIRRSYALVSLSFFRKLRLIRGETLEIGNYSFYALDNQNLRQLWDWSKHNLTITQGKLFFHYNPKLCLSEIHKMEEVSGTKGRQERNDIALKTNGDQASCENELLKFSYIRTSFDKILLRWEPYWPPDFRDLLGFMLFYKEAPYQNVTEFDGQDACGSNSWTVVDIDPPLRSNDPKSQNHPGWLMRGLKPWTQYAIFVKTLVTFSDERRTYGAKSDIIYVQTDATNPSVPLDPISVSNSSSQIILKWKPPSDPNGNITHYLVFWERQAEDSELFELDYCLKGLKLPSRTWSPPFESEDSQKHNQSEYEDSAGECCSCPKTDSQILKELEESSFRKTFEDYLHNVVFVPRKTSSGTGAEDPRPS
Sequence of Insulin receptor (P06213 763-1382 limits assumed): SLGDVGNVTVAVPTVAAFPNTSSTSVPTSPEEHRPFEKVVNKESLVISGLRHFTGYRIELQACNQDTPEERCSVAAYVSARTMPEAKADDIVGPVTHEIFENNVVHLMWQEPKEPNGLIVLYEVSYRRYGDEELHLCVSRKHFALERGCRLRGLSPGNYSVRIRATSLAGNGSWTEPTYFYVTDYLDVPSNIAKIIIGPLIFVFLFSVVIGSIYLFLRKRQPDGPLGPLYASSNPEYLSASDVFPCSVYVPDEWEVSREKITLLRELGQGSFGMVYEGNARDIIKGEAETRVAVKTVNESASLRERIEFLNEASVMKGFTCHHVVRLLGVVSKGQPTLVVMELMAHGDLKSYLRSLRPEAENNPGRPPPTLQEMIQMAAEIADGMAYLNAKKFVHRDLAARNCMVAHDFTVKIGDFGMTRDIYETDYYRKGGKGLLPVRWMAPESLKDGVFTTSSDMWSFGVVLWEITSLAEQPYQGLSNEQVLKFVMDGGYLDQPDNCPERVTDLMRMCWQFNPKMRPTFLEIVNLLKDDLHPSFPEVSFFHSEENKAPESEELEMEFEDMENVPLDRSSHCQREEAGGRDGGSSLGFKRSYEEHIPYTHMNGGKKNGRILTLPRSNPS
Sequence of High affinity nerve growth factor receptor (P04629 whole entry): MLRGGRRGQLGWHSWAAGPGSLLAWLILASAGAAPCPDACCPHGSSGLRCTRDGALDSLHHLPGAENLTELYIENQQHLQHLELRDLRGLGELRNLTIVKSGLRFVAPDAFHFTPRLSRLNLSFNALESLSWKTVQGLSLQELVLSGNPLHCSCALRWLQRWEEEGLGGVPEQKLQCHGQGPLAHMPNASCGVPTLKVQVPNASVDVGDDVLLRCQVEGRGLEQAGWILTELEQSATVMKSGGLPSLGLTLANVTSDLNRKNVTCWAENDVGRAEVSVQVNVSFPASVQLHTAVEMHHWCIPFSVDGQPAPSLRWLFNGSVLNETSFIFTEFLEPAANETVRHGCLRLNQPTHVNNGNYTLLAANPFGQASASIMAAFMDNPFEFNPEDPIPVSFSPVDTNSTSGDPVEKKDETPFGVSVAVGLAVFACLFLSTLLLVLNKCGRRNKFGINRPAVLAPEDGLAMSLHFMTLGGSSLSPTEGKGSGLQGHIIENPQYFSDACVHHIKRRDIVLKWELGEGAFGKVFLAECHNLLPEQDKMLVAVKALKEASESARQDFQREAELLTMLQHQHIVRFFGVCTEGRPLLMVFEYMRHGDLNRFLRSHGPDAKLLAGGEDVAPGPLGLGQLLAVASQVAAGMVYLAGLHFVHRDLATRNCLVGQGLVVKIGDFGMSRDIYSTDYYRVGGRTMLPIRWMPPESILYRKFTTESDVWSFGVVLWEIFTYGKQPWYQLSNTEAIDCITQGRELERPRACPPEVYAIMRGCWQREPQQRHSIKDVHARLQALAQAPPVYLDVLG

Consider `CONC(=O)c1cn(-c2ccc3c(c2)CCC3)c2nc(Nc3ccc(C4CCN(C)CC4)cc3)ncc2c1=O`, for which the IC50 is 6 nM in [1]; greater than 1000 nM in [2]; 500 nM in data set [3]; 3700 nM at Insulin receptor; 1400 nM in data set [4]. For the same compound, the figures for the remaining at 10 min in [5] and in data set [20] were 51% and 87%, respectively. Moreover, the Vd in [6] turned out to be 3.6 L/kg; in [11], 22.6 L/kg. The compound further gave a half-life in data set [7] of 1.8 h. Further, the concentration in [8] peaked (Cmax) at 1600 nM. For the same compound, the bioavailability in data set [9] stood at 51%; in [10], 33%; in data set [12] it was 16.7%; in [19], 100%. The outcome in the data set with Rattus norvegicus [13], with Rattus norvegicus [15] and in the data set with Rattus norvegicus [16] was Active. Further, the inhibition in vivo at 10 mg/kg in the data set on Rattus norvegicus [14] worked out at 17%. In addition, the concentration at 168 h in [17] amounted to 55 nM. In addition, the clearance in data set [18] amounted to 11 mL/min/kg. Besides, in the data set on Rattus norvegicus [21], the Activity result is reported as “Non-toxic”.

For the origin of these results see ChEMBL document CHEMBL1140940, “Pyrido[2,3-d]pyrimidin-5-ones: a novel class of antiinflammatory macrophage colony-stimulating factor-1 receptor inhibitors” (J Med Chem, 2009).
